Measured values from ChEMBL document CHEMBL1201861, “Genomics of Drug Sensitity in Cancer screening data, Wellcome Trust Sanger Institute”.

How the values were obtained:
Assay in all cases: cells
Conditions in all cases: Homo sapiens
COLO-800 = format: functional, cell-based;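 also: growth inhibition of COLO-800 cells, read out with a cell viability assay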
Description: SANGER: Inhibition of human COLO-800 cell growth in a cell viability assay.

COR-L88 = format: functional, cell-based;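 also: growth inhibition of COR-L88 cells, read out with a cell viability assay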
Description: SANGER: Inhibition of human COR-L88 cell growth in a cell viability assay.

Calu-6 = format: functional, cell-based;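 also: growth of human Calu-6 cells, read out by a cell viability assay, IC50 marking inhibition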
Description: SANGER: Inhibition of human Calu-6 cell growth in a cell viability assay.

DMS-114 = format: functional, cell-based
ES1 = format: functional, cell-based;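 also: growth inhibition of ES1 cells, read out with a cell viability assay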
Description: SANGER: Inhibition of human ES1 cell growth in a cell viability assay.

ES3 = format: functional, cell-based;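 also: growth inhibition of ES3 cells, read out with a cell viability assay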
Description: SANGER: Inhibition of human ES3 cell growth in a cell viability assay.

ES8 = format: functional, cell-based;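 also: growth inhibition of human ES8 cells, read out with a cell viability assay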
Description: SANGER: Inhibition of human ES8 cell growth in a cell viability assay.

EW-1 = format: functional, cell-based
Description: SANGER: Inhibition of human EW-1 cell growth in a cell viability assay.

EW-18 = format: functional, cell-based;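 also: growth inhibition of EW-18 cells, read out by a cell viability assay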
Description: SANGER: Inhibition of human EW-18 cell growth in a cell viability assay.

EW-24 = format: functional, cell-based;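 also: human EW-24 cancer cell line, growth inhibition read out via a cell viability assay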
Description: SANGER: Inhibition of human EW-24 cell growth in a cell viability assay.

EW-3 = format: functional, cell-based;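 also: cell viability assay read-out, IC50 reflects inhibition of growth of the EW-3 cells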
Description: SANGER: Inhibition of human EW-3 cell growth in a cell viability assay.

EOL1 = format: functional, cell-based;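 also: growth inhibition of EoL-1 cells, read out by a cell viability assay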
Description: SANGER: Inhibition of human EoL-1-cell cell growth in a cell viability assay.

GB-1 = format: functional, cell-based;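 also: growth of GB-1 cells judged by a viability assay, IC50 marks the concentration inhibiting growth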
Description: SANGER: Inhibition of human GB-1 cell growth in a cell viability assay.

GCIY = format: functional, cell-based;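 also: growth inhibition of the human GCIY cell line, read out by a cell viability assay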
Description: SANGER: Inhibition of human GCIY cell growth in a cell viability assay.

GOTO = format: functional, cell-based;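 also: growth inhibition of GOTO cells, read out by a cell viability assay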
Description: SANGER: Inhibition of human GOTO cell growth in a cell viability assay.

HCE-4 = format: functional, cell-based;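 also: cell viability assay measuring inhibition of growth in the human HCE-4 cell line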
Description: SANGER: Inhibition of human HCE-4 cell growth in a cell viability assay.

HT-144 = format: functional, cell-based
Description: SANGER: Inhibition of human HT-144 cell growth in a cell viability assay.

HuTu80 = format: functional, cell-based, HUTU-80;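 also: growth inhibition of HuTu80 human cells, determined with a cell viability readout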
Description: SANGER: Inhibition of human HUTU-80 cell growth in a cell viability assay.

IA-LM = format: functional, cell-based;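 also: cell viability assay measuring growth inhibition of human IA-LM cells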
Description: SANGER: Inhibition of human IA-LM cell growth in a cell viability assay.

IST-MEL1 = format: functional, cell-based;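 also: growth inhibition of the cell line, read out with a cell viability assay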
Description: SANGER: Inhibition of human IST-MEL1 cell growth in a cell viability assay.

IST-SL1 = format: functional, cell-based;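 also: growth inhibition of human IST-SL1 cells, read out with a cell viability assay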
Description: SANGER: Inhibition of human IST-SL1 cell growth in a cell viability assay.

JAR = format: functional, cell-based;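 also: growth inhibition of human JAR cells determined with a cell viability assay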
Description: SANGER: Inhibition of human JAR cell growth in a cell viability assay.

K5 = format: functional, cell-based
Description: SANGER: Inhibition of human K5 cell growth in a cell viability assay.

KGN = format: functional, cell-based;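 also: growth inhibition of KGN cells, read out with a cell viability assay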
Description: SANGER: Inhibition of human KGN cell growth in a cell viability assay.

KM12 = format: functional, cell-based;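 also: KM12 cell growth inhibition, read out with a cell viability assay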
Description: SANGER: Inhibition of human KM12 cell growth in a cell viability assay.

KMOE-2 = format: functional, cell-based;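 also: growth inhibition of human KMOE-2 cells, read out with a cell viability assay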
Description: SANGER: Inhibition of human KMOE-2 cell growth in a cell viability assay.

KY821 = format: functional, cell-based;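 also: growth inhibition of human KY821 cells, read out by a cell viability assay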
Description: SANGER: Inhibition of human KY821 cell growth in a cell viability assay.

LB2241-RCC = format: functional, cell-based;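 also: cell viability assay measuring how strongly the cultured human renal carcinoma line is prevented from growing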
Description: SANGER: Inhibition of human LB2241-RCC cell growth in a cell viability assay.

LB771-HNC = format: functional, cell-based;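 also: growth inhibition of LB771-HNC human cells, read out with a cell viability assay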
Description: SANGER: Inhibition of human LB771-HNC cell growth in a cell viability assay.

LB831-BLC = format: functional, cell-based;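 also: growth inhibition of LB831-BLC cells, read out with a cell viability assay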
Description: SANGER: Inhibition of human LB831-BLC cell growth in a cell viability assay.

LNCaP-Clone-FGC = format: functional, cell-based
Description: SANGER: Inhibition of human LNCaP-Clone-FGC cell growth in a cell viability assay.

LS-123 = format: functional, cell-based
Description: SANGER: Inhibition of human LS-123 cell growth in a cell viability assay.

LS-513 = format: functional, cell-based
Description: SANGER: Inhibition of human LS-513 cell growth in a cell viability assay.

MZ7-mel = format: functional, cell-based;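 also: growth inhibition of human MZ7-mel cells, measured by a cell viability assay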
Description: SANGER: Inhibition of human MZ7-mel cell growth in a cell viability assay.

NB6 = format: functional, cell-based;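 also: growth inhibition of NB6 cells, read out by a cell viability assay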
Description: SANGER: Inhibition of human NB6 cell growth in a cell viability assay.

NCI-H1155 = format: functional, cell-based;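 also: cell growth inhibition measured by a viability assay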
Description: SANGER: Inhibition of human NCI-H1155 cell growth in a cell viability assay.

NCI-H209 = format: functional, cell-based;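 also: growth inhibition of human NCI-H209 cells, measured by a cell viability assay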
Description: SANGER: Inhibition of human NCI-H209 cell growth in a cell viability assay.

NCI-H446 = format: functional, cell-based;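 also: growth inhibition of NCI-H446 cells determined by a cell viability assay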
Description: SANGER: Inhibition of human NCI-H446 cell growth in a cell viability assay.

NCI-H69 = format: functional, cell-based;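 also: growth inhibition of the cell line, read out with a cell viability assay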
Description: SANGER: Inhibition of human NCI-H69 cell growth in a cell viability assay.

SNU-5 = format: functional, cell-based;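 also: cell viability readout used to measure growth inhibition in human NCI-SNU-5 cells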
Description: SANGER: Inhibition of human NCI-SNU-5 cell growth in a cell viability assay.

OCI-AML2 = format: functional, cell-based;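 also: growth inhibition of OCI-AML2 cells, read out with a cell viability assay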
Description: SANGER: Inhibition of human OCI-AML2 cell growth in a cell viability assay.

OS-RC-2 = format: functional, cell-based;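 also: growth inhibition of human OS-RC-2 cells, measured by a cell viability assay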
Description: SANGER: Inhibition of human OS-RC-2 cell growth in a cell viability assay.

P30-OHK = format: functional, cell-based;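 also: growth inhibition of the P30-OHK cell line, read out with a cell viability assay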
Description: SANGER: Inhibition of human P30-OHK cell growth in a cell viability assay.

QIMR-WIL = format: functional, cell-based;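 also: growth inhibition of QIMR-WIL cells, read out with a cell viability assay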
Description: SANGER: Inhibition of human QIMR-WIL cell growth in a cell viability assay.

RKO = format: functional, cell-based;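 also: growth inhibition of human RKO cells, read out with a cell viability assay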
Description: SANGER: Inhibition of human RKO cell growth in a cell viability assay.

RXF 393 = format: functional, cell-based;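 also: growth inhibition of human RXF 393 cells, read out with a cell viability assay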
Description: SANGER: Inhibition of human RXF393 cell growth in a cell viability assay.

SBC-1 = format: functional, cell-based;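 also: cell viability assay measuring growth inhibition of the SBC-1 cell line, IC50 being the concentration that halves growth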
Description: SANGER: Inhibition of human SBC-1 cell growth in a cell viability assay.

SHP77 = format: functional, cell-based, SHP-77;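 also: growth inhibition of human SHP-77 cells measured by a cell viability assay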
Description: SANGER: Inhibition of human SHP-77 cell growth in a cell viability assay.

SJSA-1 = format: functional, cell-based;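 also: growth inhibition of human SJSA-1 cells, read out through a cell viability measurement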
Description: SANGER: Inhibition of human SJSA-1 cell growth in a cell viability assay.

SK-MEL-2 = format: functional, cell-based;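 also: growth inhibition of human SK-MEL-2 cells measured with a cell viability assay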
Description: SANGER: Inhibition of human SK-MEL-2 cell growth in a cell viability assay.

SK-N-FI = format: functional, cell-based;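 also: cell viability assay measuring growth inhibition of human SK-N-FI cells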
Description: SANGER: Inhibition of human SK-N-FI cell growth in a cell viability assay.

SK-PN-DW = format: functional, cell-based;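 also: growth inhibition measured with a viability assay on these cells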
Description: SANGER: Inhibition of human SK-PN-DW cell growth in a cell viability assay.

SNU-C2B = format: functional, cell-based;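 also: cell viability readout used to measure compound-driven suppression of SNU-C2B cell proliferation, IC50 marking half-maximal growth inhibition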
Description: SANGER: Inhibition of human SNU-C2B cell growth in a cell viability assay.

SW872 = format: functional, cell-based;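 also: growth inhibition of SW872 cells, read out by a viability assay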
Description: SANGER: Inhibition of human SW872 cell growth in a cell viability assay.

A101D = format: functional, cell-based
Description: SANGER: Inhibition of human A101D cell growth in a cell viability assay.

A3-KAW = format: functional, cell-based
Description: SANGER: Inhibition of human A3-KAW cell growth in a cell viability assay.

A388 = format: functional, cell-based
Description: SANGER: Inhibition of human A388 cell growth in a cell viability assay.

A704 = format: functional, cell-based
Description: SANGER: Inhibition of human A704 cell growth in a cell viability assay.

ACN = format: functional, cell-based
Description: SANGER: Inhibition of human ACN cell growth in a cell viability assay.

BB30-HNC = format: functional, cell-based
Description: SANGER: Inhibition of human BB30-HNC cell growth in a cell viability assay.

BE-13 = format: functional, cell-based
Description: SANGER: Inhibition of human BE-13 cell growth in a cell viability assay.

C8166 = format: functional, cell-based
Description: SANGER: Inhibition of human C8166 cell growth in a cell viability assay.

TE-10 = format: functional, cell-based
Description: SANGER: Inhibition of human TE-10 cell growth in a cell viability assay.

TE-6 = format: functional, cell-based
Description: SANGER: Inhibition of human TE-6 cell growth in a cell viability assay.

CCRF-CEM = format: functional, cell-based
Description: SANGER: Inhibition of human CCRF-CEM cell growth in a cell viability assay.

COLO-668 = format: functional, cell-based
Description: SANGER: Inhibition of human COLO-668 cell growth in a cell viability assay.

SMILES: CCNc1cc(N[C@H]2CC[C@@H](O)CC2)nc(Nc2ccc3c(ccn3Cc3ccccc3)c2)n1
- IC50 (COLO-800): > 5.12 µM
- IC50 (COR-L88): > 5.12 µM
- IC50 (Calu-6): > 5.12 µM
- IC50 (DMS-114): > 5.12 µM
- IC50 (ES1): > 5.12 µM
- IC50 (ES3): > 5.12 µM
- IC50 (ES8): > 5.12 µM
- IC50 (EW-1): > 5.12 µM
- IC50 (EW-18): > 5.12 µM
- IC50 (EW-24): > 5.12 µM
- IC50 (EW-3): > 5.12 µM
- IC50 (EOL1): > 5.12 µM
- IC50 (GB-1): > 5.12 µM
- IC50 (GCIY): > 5.12 µM
- IC50 (GOTO): > 5.12 µM
- IC50 (HCE-4): > 5.12 µM
- IC50 (HT-144): > 5.12 µM
- IC50 (HuTu80): > 5.12 µM
- IC50 (IA-LM): > 5.12 µM
- IC50 (IST-MEL1): > 5.12 µM
- IC50 (IST-SL1): > 5.12 µM
- IC50 (JAR): > 5.12 µM
- IC50 (K5): > 5.12 µM
- IC50 (KGN): > 5.12 µM
- IC50 (KM12): > 5.12 µM
- IC50 (KMOE-2): > 5.12 µM
- IC50 (KY821): > 5.12 µM
- IC50 (LB2241-RCC): > 5.12 µM
- IC50 (LB771-HNC): > 5.12 µM
- IC50 (LB831-BLC): > 5.12 µM
- IC50 (LNCaP-Clone-FGC): > 5.12 µM
- IC50 (LS-123): > 5.12 µM
- IC50 (LS-513): > 5.12 µM
- IC50 (MZ7-mel): > 5.12 µM
- IC50 (NB6): > 5.12 µM
- IC50 (NCI-H1155): > 5.12 µM
- IC50 (NCI-H209): > 5.12 µM
- IC50 (NCI-H446): > 5.12 µM
- IC50 (NCI-H69): > 5.12 µM
- IC50 (SNU-5): > 5.12 µM
- IC50 (OCI-AML2): > 5.12 µM
- IC50 (OS-RC-2): > 5.12 µM
- IC50 (P30-OHK): > 5.12 µM
- IC50 (QIMR-WIL): > 5.12 µM
- IC50 (RKO): 4.72 µM
- IC50 (RXF 393): > 5.12 µM
- IC50 (SBC-1): > 5.12 µM
- IC50 (SHP77): > 5.12 µM
- IC50 (SJSA-1): > 5.12 µM
- IC50 (SK-MEL-2): > 5.12 µM
- IC50 (SK-N-FI): > 5.12 µM
- IC50 (SK-PN-DW): > 5.12 µM
- IC50 (SNU-C2B): > 5.12 µM
- IC50 (SW872): > 5.12 µM
- IC50 (A101D): > 5.12 µM
- IC50 (A3-KAW): 1.91 µM
- IC50 (A388): > 5.12 µM
- IC50 (A704): > 5.12 µM
- IC50 (ACN): > 5.12 µM
- IC50 (BB30-HNC): 4.6 µM
- IC50 (BE-13): > 5.12 µM
- IC50 (C8166): > 5.12 µM
- IC50 (TE-10): 4.39 µM
- IC50 (TE-6): > 5.12 µM
- IC50 (CCRF-CEM): > 5.12 µM
- IC50 (COLO-668): > 5.12 µM

SMILES: COc1cc(C)c(Sc2cnc(NC(=O)c3ccc(CNC(C)C(C)(C)C)cc3)s2)cc1C(=O)N1CCN(C(C)=O)CC1 (configuration not stated)
- IC50 (COLO-800): > 10.2 µM
- IC50 (COR-L88): > 10.2 µM
- IC50 (Calu-6): > 10.2 µM
- IC50 (DMS-114): > 10.2 µM
- IC50 (ES1): 7.44 µM
- IC50 (ES3): 8.9 µM
- IC50 (ES8): > 10.2 µM
- IC50 (EW-1): 3.11 µM
- IC50 (EW-18): > 10.2 µM
- IC50 (EW-24): > 10.2 µM
- IC50 (EW-3): 8.57 µM
- IC50 (EOL1): > 10.2 µM
- IC50 (GB-1): 9.12 µM
- IC50 (GCIY): > 10.2 µM
- IC50 (GOTO): > 10.2 µM
- IC50 (HCE-4): > 10.2 µM
- IC50 (HT-144): 3.34 µM
- IC50 (HuTu80): > 10.2 µM
- IC50 (IA-LM): 5.39 µM
- IC50 (IST-MEL1): > 10.2 µM
- IC50 (IST-SL1): > 10.2 µM
- IC50 (JAR): > 10.2 µM
- IC50 (K5): > 10.2 µM
- IC50 (KGN): > 10.2 µM
- IC50 (KM12): 2.84 µM
- IC50 (KMOE-2): > 10.2 µM
- IC50 (KY821): > 10.2 µM
- IC50 (LB2241-RCC): > 10.2 µM
- IC50 (LB771-HNC): > 10.2 µM
- IC50 (LB831-BLC): 6.16 µM
- IC50 (LNCaP-Clone-FGC): > 10.2 µM
- IC50 (LS-123): > 10.2 µM
- IC50 (LS-513): > 10.2 µM
- IC50 (MZ7-mel): > 10.2 µM
- IC50 (NB6): > 10.2 µM
- IC50 (NCI-H1155): > 10.2 µM
- IC50 (NCI-H209): > 10.2 µM
- IC50 (NCI-H446): > 10.2 µM
- IC50 (NCI-H69): > 10.2 µM
- IC50 (SNU-5): > 10.2 µM
- IC50 (OCI-AML2): 7.48 µM
- IC50 (OS-RC-2): 8.9 µM
- IC50 (P30-OHK): > 10.2 µM
- IC50 (QIMR-WIL): 10.1 µM
- IC50 (RKO): 8.84 µM
- IC50 (RXF 393): > 10.2 µM
- IC50 (SBC-1): > 10.2 µM
- IC50 (SHP77): > 10.2 µM
- IC50 (SJSA-1): 7.63 µM
- IC50 (SK-MEL-2): > 10.2 µM
- IC50 (SK-N-FI): > 10.2 µM
- IC50 (SK-PN-DW): 10.2 µM
- IC50 (SNU-C2B): 4.64 µM
- IC50 (SW872): > 10.2 µM
- IC50 (A101D): 4.81 µM
- IC50 (A3-KAW): > 10.2 µM
- IC50 (A388): > 10.2 µM
- IC50 (A704): > 10.2 µM
- IC50 (ACN): > 10.2 µM
- IC50 (BB30-HNC): 9.34 µM
- IC50 (BE-13): > 10.2 µM
- IC50 (C8166): > 10.2 µM
- IC50 (TE-10): > 10.2 µM
- IC50 (TE-6): > 10.2 µM
- IC50 (CCRF-CEM): > 10.2 µM
- IC50 (COLO-668): > 10.2 µM
